Here are results for 16 molecules from patent US12421235B2, “Bridged tricyclic carbamoylpyridone compounds and uses thereof” (Gilead Sciences, Inc., priority 2020, dated 2025).

Data set [1] can be described thus: High throughput microsomal stability assay (human liver microsomes). The class given is in vitro ADME. Conditions: for HLM stability: human liver microsomes, 1 uM compound, NADPH + UDPGA cofactors, 37 C. In short, it runs like this:
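Compounds at 1 uM final, incubated at 37° C. with liver microsomes (2 mg/ml stock, alamethicin-treated) in pH 7.4 phosphate plus NADPH-regenerating/UDPGA cofactors; samples taken 0–70 min. Parent/IS peak-area ratios read by RapidFire QToF MS; half-life from linear fit of initial log decay, scaled to intrinsic clearance.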

Data set [2] relates to HIV-1 (IIIB) in MT-4 cells. In words: HIV MT-4 antiviral assay. Format: cell-based. Conditions: Human immunodeficiency virus 1, MT4, 120 h, 5 days, Cell Titer Glo. In outline: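 MT-4 cells infected with HIV-1 IIIB (1:250 dilution of concentrated stock) were incubated 5 days at 37 °C with compound in 1:3 serial dilutions in RPMI/10% FBS. Viability was read by CellTiter-Glo luminescence. EC50 was the concentration causing a 50% decrease in luminescence signal, from sigmoidal dose-response fits.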
On the technique in general: ATP-based viability assays read luminescence as a measure of living cells.

The test system of data set [3] is pLai RLuc reporter virus in MT-4 cells. The experiment in a line: HIV MT-4 serum shift antiviral reporter assay. The class given is cell-based. Conditions: Human immunodeficiency virus 1, MT4, 72 h, read-out: RLUC CCM. In outline: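 MT-4 cells pre-infected 2 h with reporter virus, then dosed (1:3 dilutions) in medium with 10% FBS alone or plus 50% human serum; 72 h at 37 °C. Renilla luminescence read; EC50 = 50% signal decrease by sigmoidal fit, serum shift = EC50(HS)/EC50(no HS).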
For orientation: Reporter assays use an easily measured gene product as a stand-in for the process of interest.

A short description of data set [4]: Cytotoxicity assay in MT-4 cells. Format: cell-based. Conditions: human, uninfected MT-4 cells, Cell Titer Glo. In short, it runs like this: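 Uninfected MT-4 cells were incubated with 1:3 serially diluted compound in RPMI/10% FBS for 5 days at 37° C. Viability was read by CellTiter-Glo luminescence, with 10 μM puromycin as the baseline cytotoxicity control. Values are the concentration giving a 50% decrease in luminescence, from sigmoidal dose-response fits.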

Like-named read-outs stand apart in the source and are kept apart here.

The CC50 is the concentration that lowers cell viability or growth by half.

In the case of `CO[C@@H]1C=C[C@H](C)N2C[C@H]1n1cc(C(=O)NCc3ccc(F)c(Cl)c3F)c(=O)c(O)c1C2=O` [Example 10, (3S,6R,7R)—N-(3-chloro-2,4-difluorobenzyl)-12-hydroxy-6-methoxy-3-methyl-1,11-dioxo-1,6,7,11-tetrahydro-3H-2,7-methanopyrido[1,2-a][1,4]diazonine-10-carboxamide], the HLM stability in data set [1] was determined as 6.67 mL/min/kg. For the same molecule, the EC50 in data set [2] came to 1.2 nM; in data set [3] it was 0.28 nM. In addition, the CC50 at 5 days in data set [4] amounted to 4020 nM.
As for `CO[C@H]1CC[C@H](C)N2C[C@H]1n1cc(C(=O)NCc3c(F)cc(F)cc3F)c(=O)c(O)c1C2=O` [Example 1, (3S,6S,7R)-12-hydroxy-6-methoxy-3-methyl-1,11-dioxo-N-(2,4,6-trifluorobenzyl)-1,4,5,6,7,11-hexahydro-3H-2,7-methanopyrido[1,2-a][1,4]diazonine-10-carboxamide], the HLM stability in data set [1] was found to be 3.5 mL/min/kg. Also, the “MS Cl improvement” value in data set [1] (relative to compound A) is 3.2 times relative to compound A. For the same molecule, the values for the EC50 in data set [2] and in data set [3] were 1.5 nM and 0.55 nM, respectively. Moreover, the CC50 at 5 days in data set [4] worked out at 34800 nM.
As for `CO[C@H]1C=C[C@H](C)N2C[C@H]1n1cc(C(=O)NCc3c(F)cc(F)cc3F)c(=O)c(O)c1C2=O` [Example 18, (3S,6S,7R)-12-hydroxy-6-methoxy-3-methyl-1,11-dioxo-N-(2,4,6-trifluorobenzyl)-1,6,7,11-tetrahydro-3H-2,7-methanopyrido[1,2-a][1,4]diazonine-10-carboxamide], the HLM stability in data set [1] was 12.2 mL/min/kg. Further, the results for the EC50 in data set [2] and in data set [3] were 1.4 nM and 0.55 nM, respectively. Besides, in data set [4], the CC50 at 5 days was determined as 13400 nM.
For `CCO[C@H]1C=C[C@H](C)N2C[C@H]1n1cc(C(=O)NCc3c(F)cc(F)cc3F)c(=O)c(O)c1C2=O` [Example 25, (3S,6S,7R)-6-ethoxy-12-hydroxy-3-methyl-1,11-dioxo-N-(2,4,6-trifluorobenzyl)-1,6,7,11-tetrahydro-3H-2,7-methanopyrido[1,2-a][1,4]diazonine-10-carboxamide], the HLM stability in data set [1] was 9.67 mL/min/kg. The EC50 in data set [2] was 4.1 nM; in data set [3] it was 0.82 nM. The molecule also returned a CC50 at 5 days in data set [4] of 43700 nM.
The matching figures for `C[C@@H]1CC[C@](C)(O)[C@H]2CN1C(=O)c1c(O)c(=O)c(C(=O)NCc3ccc(F)cc3F)cn12` (single isomer, unassigned) [Example 35]: 10.3 mL/min/kg, 3.2 nM, 1.45 nM and 11700 nM.
For `CO[C@H]1C=C[C@H](C)N2C[C@H]1n1cc(C(=O)NCc3ccc(F)c(Cl)c3F)c(=O)c(O)c1C2=O` [Example 9, (3S,6S,7R)—N-(3-chloro-2,4-difluorobenzyl)-12-hydroxy-6-methoxy-3-methyl-1,11-dioxo-1,6,7,11-tetrahydro-3H-2,7-methanopyrido[1,2-a][1,4]diazonine-10-carboxamide] the same measures were 8 mL/min/kg, 1 nM, 0.42 nM and 4270 nM.
For `CCO[C@H]1CC[C@H](C)N2C[C@H]1n1cc(C(=O)NCc3c(F)cc(F)cc3F)c(=O)c(O)c1C2=O` [Example 26, (3S,6S,7R)-6-ethoxy-12-hydroxy-3-methyl-1,11-dioxo-N-(2,4,6-trifluorobenzyl)-1,4,5,6,7,11-hexahydro-3H-2,7-methanopyrido[1,2-a][1,4]diazonine-10-carboxamide] the same measures were 3.67 mL/min/kg, 4.4 nM, 0.92 nM and 44300 nM.
Take `C[C@H]1CC[C@](C)(O)[C@H]2CN1C(=O)c1c(O)c(=O)c(C(=O)NCc3c(F)cc(F)cc3F)cn12` [Example 11, (1R,10S,13S)-6,13-dihydroxy-10,13-dimethyl-5,8-dioxo-N-[(2,4,6-trifluorophenyl)methyl]-2,9-diazatricyclo[7.4.1.02,7]tetradeca-3,6-diene-4-carboxamide]: the HLM stability in data set [1] came to 4.17 mL/min/kg. In data set [1] (relative to compound D), the “MS Cl improvement” value is recorded as 2.7 times relative to compound D. The EC50 turned out to be 1.5 nM in data set [2] and 0.84 nM in data set [3]. In data set [4], this molecule registered a half-maximal cytotoxic concentration (CC50) at 5 days of 38700 nM.
Turning to `[2H]C([2H])([2H])O[C@H]1CC[C@H](C)N2C[C@H]1n1cc(C(=O)NCc3ccc(F)cc3F)c(=O)c(O)c1C2=O` [Example 34, (3S,6S,7R)—N-(2,4-difluorobenzyl)-12-hydroxy-6-(methoxy-d3)-3-methyl-1,11-dioxo-1,4,5,6,7,11-hexahydro-3H-2,7-methanopyrido[1,2-a][1,4]diazonine-10-carboxamide], the HLM stability in data set [1] amounted to 4.17 mL/min/kg. Also, the EC50 in data set [2] was 0.9 nM; in data set [3] it was 0.42 nM. Also, the midpoint of cytotoxicity in data set [4], the CC50 at 5 days, lay at 15100 nM.
The matching figures for `C[C@H]1CC[C@@](C)(O)[C@H]2CN1C(=O)c1c(O)c(=O)c(C(=O)NCc3ccc(F)cc3F)cn12` [Example 33, (1R,10S,13R)—N-[(2,4-difluorophenyl)methyl]-6,13-dihydroxy-10,13-dimethyl-5,8-dioxo-2,9-diazatricyclo[7.4.1.02,7]tetradeca-3,6-diene-4-carboxamide]: 5.83 mL/min/kg, 2.1 nM, 0.36 nM and 22800 nM.
For `[2H][C@]1(OC)C=C[C@H](C)N2C[C@H]1n1cc(C(=O)NCc3ccc(F)cc3F)c(=O)c(O)c1C2=O` [Example 21, (3S,6S,7R)—N-(2,4-difluorobenzyl)-12-hydroxy-6-methoxy-3-methyl-1,11-dioxo-1,6,7,11-tetrahydro-3H-2,7-methanopyrido[1,2-a][1,4]diazonine-6-d-10-carboxamide] the same measures were 6.17 mL/min/kg, 1.8 nM, 0.52 nM and 19300 nM.
The matching figures for `CO[C@@H]1C[C@H](F)[C@H](C)N2C[C@H]1n1cc(C(=O)NCc3c(F)cc(F)cc3F)c(=O)c(O)c1C2=O` [Example 37, (3S,4S,6R,7R)-4-fluoro-12-hydroxy-6-methoxy-3-methyl-1,11-dioxo-N-(2,4,6-trifluorobenzyl)-1,4,5,6,7,11-hexahydro-3H-2,7-methanopyrido[1,2-a][1,4]diazonine-10-carboxamide]: 2.83 mL/min/kg, 1.4 nM, 0.65 nM and 14800 nM.
In the case of `C[C@H]1CC[C@@](C)(O)[C@H]2CN1C(=O)c1c(O)c(=O)c(C(=O)NCc3c(F)cc(F)cc3F)cn12` (single isomer, unassigned) [Example 32], in data set [1], the HLM stability was determined as 9 mL/min/kg. The EC50 in data set [2] is 1.9 nM; in data set [3] it was 0.43 nM. Further, the CC50 at 5 days in data set [4] came to 34600 nM.
For the molecule `C[C@H]1C=C[C@@H](Cl)[C@H]2CN1C(=O)c1c(O)c(=O)c(C(=O)NCc3ccc(F)cc3F)cn12` [Example 13, (3S,6R,7R)-6-chloro-N-(2,4-difluorobenzyl)-12-hydroxy-3-methyl-1,11-dioxo-1,6,7,11-tetrahydro-3H-2,7-methanopyrido[1,2-a][1,4]diazonine-10-carboxamide], in data set [1], the “MS Cl improvement” value is on record as 1.5 times relative to compound E and the HLM stability worked out at 4.33 mL/min/kg. In addition, the EC50 in data set [2] was found to be 1.5 nM. For the same molecule, the EC50 in data set [3] is 0.55 nM. The molecule further had a CC50 at 5 days in data set [4] of 15600 nM.
`C[C@H]1CC[C@H](OC(F)F)[C@H]2CN1C(=O)c1c(O)c(=O)c(C(=O)NCc3c(F)cc(F)cc3F)cn12` [Example 27, (3S,6S,7R)-6-(difluoromethoxy)-12-hydroxy-3-methyl-1,11-dioxo-N-(2,4,6-trifluorobenzyl)-1,4,5,6,7,11-hexahydro-3H-2,7-methanopyrido[1,2-a][1,4]diazonine-10-carboxamide]: the HLM stability in data set [1] amounted to 14.7 mL/min/kg. The EC50 in data set [2] amounted to 1.1 nM; in data set [3], 0.35 nM. Moreover, the CC50 at 5 days in data set [4] stood at 13600 nM.
With `CO[C@H]1CC[C@H](C)N2C[C@H]1n1cc(C(=O)NCc3ccc(F)cc3F)c(=O)c(O)c1C2=O` [Example 3, (3S,6S,7R)—N-(2,4-difluorobenzyl)-12-hydroxy-6-methoxy-3-methyl-1,11-dioxo-1,4,5,6,7,11-hexahydro-3H-2,7-methanopyrido[1,2-a][1,4]diazonine-10-carboxamide], the HLM stability in data set [1] came to 2.5 mL/min/kg. Further, in data set [1] (relative to compound B), the “MS Cl improvement” value is 3.2 times relative to compound B. The EC50 came to 1.5 nM in data set [2] and 0.42 nM in data set [3]. This molecule also had a CC50 at 5 days in data set [4] of 16500 nM.
